Columns and labels:
[1] = test system: glaucoma patients; settings: human, in vivo
Method: (§1) The clinical tests on glaucoma patients were performed with an ophthalmic ointment comprising 0.01 % and 0.025 % of dihydro­ergotoxine methanesulfonate or bromocryptine methanesulfonate.
The effect of the ophthalmic ointment comprising 0.025 % of dihydroergotoxine methanesulfonate or bromocryptine methane­sulfonate on the intraocular pressure in both eyes was tested in four male and three female glaucoma patients, agend from 31 to 64 years.
The ointment was applied into the conjunctival sac in the morning and in the evening. Before application, the I.O.P. was measured. This procedure was repeated for five days.

[2] = test system: glaucoma patients; test: Clinical trial: effect of ophthalmic ointment comprising 0.01 % active substance on intraocular pressure (I.O.P.); settings: human, in vivo
Method: as §1
Effect of ophthalmic ointment comprising 0.01 % of dihydroer­gotoxine methanesulfonate or bromocryptine methanesulfonate on the intraocular pressure (I.O.P.) in glaucoma patients
The effect of the ophthalmic ointment comprising 0.01 % of dihydroergotoxine (as base and as methanesulfonate salt) and of bromocryptine methanesulfonate on the intraocular pressure in both eyes was tested in five male and three female glaucoma patients aged from 34 to 62 years.

## CC(C)C[C@H]1C(=O)N2CCC[C@H]2[C@]2(O)O[C@](NC(=O)[C@@H]3C=C4c5cccc6[nH]c(Br)c(c56)C[C@H]4N(C)C3)(C(C)C)C(=O)N12 [bromocryptine methanesulfonate]
[1]
  I.O.P. from which it decreased: 4.00 kPa
  I.O.P. to which it decreased: 2.67 kPa
  reduction of intraocular pressure: 30%
  undesired side effects: No undesired side effects
[2]
  maximum reduction of I.O.P.: 21%
  time for which the effect (reduction of I.O.P.) was present: at least five

From patent publication EP0342396A1, “Ophthalmic ointments for the treatment of glaucoma, comprising ergot alkaloids” (LEK, tovarna farmacevtskih in kemicnih izdelkov, n.sol.o., priority 1988, dated 1989)
